Reference: PubChem BioAssay AID200 (DTP/NCI, 2004)
“And” between values parts separate entries of the source, which are not always exact repeats. Equal values may be shown once. Toxic doses and inconclusive results are not listed. *1 amine or outer side, *2 acyl side, *3 side chain or, on linkers, in order; H or OH if unused. Where a SMILES comes first, the peptide text is derived from it. [ ]: non-standard residue; d: D form. The star is where a group is joined. X3 = CCC(=O)CC1CC(C)CC(C(=O)[*:2])N1[*:1]; X2 = CCCCCCCCC(C)C(=O)*; Aib = CC(C)(N)C(=O)O; X4 = CC(CN(C)CCO)N*

System: B6C3F1 mice, B16 melanoma ip, median survival T/C
Assay: NCI In Vivo Anticancer Drug Screen. Data for tumor model B16 Melanoma (intraperitoneal) in B6C3F1 mice
Settings: endpoint: median survival time, schedule: Q01DX009 (ip), higher = longer survival
How it was run: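 Mice bearing transplanted tumor were dosed with compound or vehicle, and survival was recorded. Activity is expressed as the treated-group measurement (T) divided by the vehicle control measurement (C).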

[1] = dose: 50.0 mg/kg/injection, vehicle: saline with Tween-80
[2] = dose: 100.0 mg/kg/injection, vehicle: saline with Tween-80
[3] = dose: 200.0 mg/kg/injection, vehicle: saline with Tween-80
[4] = dose: 400.0 mg/kg/injection, vehicle: saline with Tween-80
[5] = dose: 25.0 mg/kg/injection, vehicle: Klucel (hydroxypropylcellulose) (HPC)
[6] = dose: 50.0 mg/kg/injection, vehicle: Klucel (hydroxypropylcellulose) (HPC)
[7] = dose: 100.0 mg/kg/injection, vehicle: Klucel (hydroxypropylcellulose) (HPC)

In the case of `CN(C)CCN1C(=O)c2cccc3cc(N)cc(c23)C1=O`, the T/C (dose: 1.0 mg/kg/injection, vehicle: saline with Tween-80) is reported as 113 % of control and 102 % of control, the T/C (dose: 2.0 mg/kg/injection, vehicle: acid diluted with saline) is reported as 97 % of control and the T/C (dose: 2.0 mg/kg/injection, vehicle: saline with Tween-80) is reported as 101 % of control and 102 % of control. The T/C (dose: 4.0 mg/kg/injection, vehicle: acid diluted with saline) was 106 % of control, the T/C (dose: 4.0 mg/kg/injection, vehicle: saline with Tween-80) was 112 % of control and 113 % of control and 120 % of control and the T/C (dose: 8.0 mg/kg/injection, vehicle: acid diluted with saline) was 111 % of control. For the same molecule, the T/C (dose: 8.0 mg/kg/injection, vehicle: saline with Tween-80) was 116 % of control and 118 % of control and 120 % of control, the T/C (dose: 16.0 mg/kg/injection, vehicle: acid diluted with saline) was 110 % of control and the T/C (dose: 16.0 mg/kg/injection, vehicle: saline with Tween-80) was 87 % of control.
For `NC(=O)c1cc(Cl)nc2nc(Cl)nc(N)c12`, the T/C (dose: 25.0 mg/kg/injection, vehicle: saline with Tween-80) was 92 % of control, the T/C [1] was 101 % of control and the T/C [2] was 86 % of control. For the same molecule, the T/C [3] was 98 % of control and the T/C [4] was 106 % of control.
With `CC(C)(C)OC(=O)N1CCCC1C(=O)O` (stereo not given) the T/C (dose: 22.5 mg/kg/injection, vehicle: Klucel (hydroxypropylcellulose) (HPC)) was 100 % of control, the T/C (dose: 45.0 mg/kg/injection, vehicle: Klucel (hydroxypropylcellulose) (HPC)) was 102 % of control and the T/C (dose: 90.0 mg/kg/injection, vehicle: Klucel (hydroxypropylcellulose) (HPC)) was 90 % of control.
In the case of `CCCCCCCCC(C)C(=O)N1CCCC1C(=O)N1C(CC(=O)CC)CC(C)CC1C(=O)NC(C)C(=O)NC(C)(C)C(=O)NC(C)(C)C(=O)NC(C(=O)NC(C)C(=O)NC(C)(C)C(=O)NC(C)(C)C(=O)NC(C)CN(C)CCO)C(C)CC` (stereo not given) (X2-P[X3]A[Aib][Aib]IA[Aib][Aib]-X4; configuration not given here), the T/C (dose: 0.15 mg/kg/injection, vehicle: Klucel (hydroxypropylcellulose) (HPC)) is reported as 98 % of control, the T/C (dose: 0.31 mg/kg/injection, vehicle: Klucel (hydroxypropylcellulose) (HPC)) is reported as 91 % of control and the T/C (dose: 0.62 mg/kg/injection, vehicle: Klucel (hydroxypropylcellulose) (HPC)) is reported as 97 % of control. The T/C (dose: 1.25 mg/kg/injection, vehicle: Klucel (hydroxypropylcellulose) (HPC)) was 89 % of control, the T/C (dose: 2.5 mg/kg/injection, vehicle: Klucel (hydroxypropylcellulose) (HPC)) was 92 % of control and the T/C (dose: 5.0 mg/kg/injection, vehicle: Klucel (hydroxypropylcellulose) (HPC)) was 86 % of control.
In the case of `NC(CCl)=NCC12CC3CC(CC(C3)C1)C2`, the T/C (dose: 1.5 mg/kg/injection, vehicle: Klucel (hydroxypropylcellulose) (HPC)) is reported as 92 % of control, the T/C (dose: 3.0 mg/kg/injection, vehicle: Klucel (hydroxypropylcellulose) (HPC)) is reported as 104 % of control and the T/C (dose: 3.13 mg/kg/injection, vehicle: Klucel (hydroxypropylcellulose) (HPC)) is reported as 92 % of control. The T/C (dose: 6.0 mg/kg/injection, vehicle: Klucel (hydroxypropylcellulose) (HPC)) was 110 % of control and 101 % of control, the T/C (dose: 6.25 mg/kg/injection, vehicle: Klucel (hydroxypropylcellulose) (HPC)) was 101 % of control and the T/C (dose: 12.0 mg/kg/injection, vehicle: Klucel (hydroxypropylcellulose) (HPC)) was 114 % of control and 104 % of control. For the same molecule, the T/C (dose: 12.5 mg/kg/injection, vehicle: Klucel (hydroxypropylcellulose) (HPC)) was 101 % of control and the T/C [5] was 112 % of control.
For `NC(=O)c1ccc(N)nc1`, the T/C (dose: 0.5 mg/kg/injection, vehicle: saline) was 113 % of control, the T/C (dose: 1.0 mg/kg/injection, vehicle: saline) was 119 % of control and the T/C (dose: 2.0 mg/kg/injection, vehicle: saline) was 117 % of control.
For `Cc1ccc(S(=O)(=O)OCOS(=O)(=O)c2ccc(C)cc2)cc1`, the T/C [6] was 120 % of control and 122 % of control, the T/C [7] was 117 % of control and the T/C (dose: 200.0 mg/kg/injection, vehicle: Klucel (hydroxypropylcellulose) (HPC)) was 154 % of control. The T/C (dose: 400.0 mg/kg/injection, vehicle: Klucel (hydroxypropylcellulose) (HPC)) was 191 % of control.
`CCCC(C(CC)CNC(=O)Nc1cccc2ccccc12)N(C)C(=O)Nc1cccc2ccccc12` (stereo not given) was tested, and the T/C [1] was 99 % of control, the T/C [2] was 95 % of control and the T/C [3] was 102 % of control. The T/C [4] was 95 % of control.
With `Cn1cc(C2NC(=O)c3ccccc3N2)c2ccccc21` (stereo not given) the T/C [5] was 109 % of control and 96 % of control, the T/C [6] was 115 % of control and 106 % of control and the T/C [7] was 123 % of control.
